The nature of data set [1]: solubility profile of sunitinib base as observed by applicants. Type of data set: physicochemical. The settings on record: sunitinib base obtained in the prior art (Form III); qualitative observation. The source says: In this regard, the low solubility of sunitinib base Form III would involve the use of large amounts of suitable solvents or mixture of solvents and/or the use of particular conditions aimed to improve the solubility of sunitinib base Form III and/or long reaction times for processes using sunitinib, which may represent an important drawback, especially for processes on an industrial scale.

The conditions of data set [2]: European Public Assessment Report provided for SUTENT; cited from earlier work.

Consider `CCN(CC)CCNC(=O)c1c(C)[nH]c(/C=C2\C(=O)Nc3ccc(F)cc32)c1C` [sunitinib base Form III, N-[2-(diethylamino)ethyl]-5-[(Z)-(5-fluoro-1,2-dihydro-2-oxo-3H-indol-3-ylidine)methyl]-2,4-dimethyl-1H-pyrrole-3-carboxamide], for which the solubility profile entry in data set [1] is “low solubility profile”. Consider `CCN(CC)CCNC(=O)c1c(C)[nH]c(/C=C2\C(=O)Nc3ccc(F)cc32)c1C` [sunitinib, N-[2-(diethylamino)ethyl]-5-[(Z)-(5-fluoro-1,2-dihydro-2-oxo-3H-indol-3-ylidine)methyl]-2,4-dimethyl-1H-pyrrole-3-carboxamide], for which, in data set [2], the “solubility class according to the biopharmaceutical classification” value was “low solubility compound”.

These data come from patent publication US8389562B2, “Polymorphic forms of a 3-pyrrole substituted 2-indolinone” (Medichem, S.A., priority 2007, dated 2013).
